The nature of series [1]: Low pH control: chemical stability in pH 2.0 buffer by 31P NMR. The format is physicochemical. The conditions noted are these: 10 mM, 37° C. The procedure: (§1) Cell lysates from E. coli Tuner(DE3)pLacI cells (Novagen) were obtained by treatment with lysozyme (1 mg/ml) and the DNA was precipitated by protamine sulfate followed by centrifugation to remove cell debris. The supernatant was dialyzed extensively against Buffer A (20 mM Tris (pH 7.0); 1 mM EDTA; 1 mM DTT, 0.01 mM PMSF) to remove cellular phosphates and nucleotides. Phosphate free cell lysates (0.75 mg total protein) were incubated with 5 mM AMP-NH2 in 0.5 ml reaction buffer (0.5 mM MgCl2, 20 mM HEPES (pH 7.2)) at 37° C. for intervals of 15 min, 30 min, and 12 h. The reactions were terminated by snap freezing in a dry ice/acetone slush bath and lyophilized for 5 h. The samples were then dissolved in NMR buffer (600 μL, 50 mM EDTA, 20 mM HEPES (pH 7.2), and 1 mM TMP (trimethylphosphate, internal standard)) and the insoluble portion was spun down by centrifugation at 12,500×g for 5 min. A ^31P NMR spectrum was then collected for the supernatant. For the low pH control experiment, 10 mM AMP-NH2 in reaction buffer (500 μL, pH 2.0) was incubated at 37° C. for 12 h and the 31p signal was detected under the same conditions.
Tuner(DE3)pLacI, a modified E. coli BL21 strain, was used to determine phosphoramidase activity in cell lysates. […]

Series [2] deals with T1, hHINT1 (Homo sapiens, UniProt P49773). As to the kind of experiment: 31P NMR phosphoramidase assay of purified protein. Format: biochemical. The conditions noted are these: 10 mM substrate, pH 7.2, 22° C. The procedure:
(§2) Phosphoramidase activity in cell lysates was measured by the ^1H-decoupling mode of phosphorus-31 NMR spectroscopy (Varian VAC-300 spectrometer), which can clearly distinguish the substrate, AMP-NH2, and the product, adenosine 5′-monophosphate (AMP). NMR spectrometry is suitable for quantitation by integration of the area under the peak, which is proportional to the amount of nuclei present. The relative ratio of peak areas can be used to calculate the amount of turnover corrected based on a standard curve.
as §1
(§3) Five recombinant purified proteins were tested with three commercial available compounds (Sigma): AMP-NH2, adenosine 5′-monophosphomorpholidate (AMP-Mor), and guanosine 5′-monophosphomorpholidate (GMP-Mor) (FIG. 1). The compounds (10 mM) were incubated with proteins (2.5-10 μg) in the reaction buffer (500 μL, 0.5 mM MgCl2, 20 mM HEPES (pH 7.2)) at 22° C. for intervals of 36 and 66 min. The reactions were quenched by adding 5 M NaOH (20 μL), followed by snap freezing in a dry ice/acetone slush bath, and lyophilized. The sample preparation for ^31P NMR measurement was as described above for the cell-lysate experiment except that the pH was adjusted by the addition of 12 μL 6 M HCl before NMR spectra were collected.

The target in the next series is T2, E. coli hinT-DHFR (Escherichia coli, UniProt P0ABQ4+P0ACE7).
T2 construct: made in house; host or cells: E. coli Tuner(DE3)pLacI
The experiment in a line: 31P NMR phosphoramidase assay of purified protein. Format: biochemical. The conditions noted are these: 10 mM substrate, pH 7.2, 22° C. The procedure: as §2, §1, §3

The target of the next series is T3, Human Hint1-DHFR (UniProt P0ABQ4+P49773).
T3 construct: made in house; host or cells: E. coli (following the procedure for the hinT plasmid)
As to the kind of experiment: 31P NMR phosphoramidase assay of purified protein. The format is biochemical. The conditions noted are these: 10 mM substrate, pH 7.2, 22° C. On the procedure: as §2, §1, §3

For another series, the target named is T4, E. coli hinT (Escherichia coli, UniProt P0ACE7).
T4 sequence (P0ACE7 1-119): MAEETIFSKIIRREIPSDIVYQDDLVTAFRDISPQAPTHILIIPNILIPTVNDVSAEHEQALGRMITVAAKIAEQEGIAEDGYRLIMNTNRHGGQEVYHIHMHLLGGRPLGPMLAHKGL
The experiment in a line: 31P NMR phosphoramidase assay of purified protein. The format is biochemical. Conditions: 10 mM substrate, pH 7.2, 22° C. The procedure: as §2, §1, §3

For the next series, the target named is T5, Rabbit HINT1 (Oryctolagus cuniculus, UniProt P80912).
T5 construct: made in house; host or cells: E. coli hinT deletion mutant
The experiment in a line: 31P NMR phosphoramidase assay of purified protein. Conditions: 10 mM substrate, pH 7.2, 22° C. Format: biochemical. On the procedure: as §2, §1, §3

Series [3] has as its target T1, hHINT1. The conditions noted are these: literature (J. Biol. Chem. 2004, 279, 18711; 2002, 277, 10852); cited from earlier work.
In series [4] the target is T6, E. coli Tuner(DE3)pLacI cell lysates (Escherichia coli, UniProt P0ACE7).
T6 construct: Cell lysates from E. coli Tuner(DE3)pLacI cells (Novagen) were obtained by treatment with lysozyme; host or cells: E. coli Tuner(DE3)pLacI
As to the kind of experiment: 31P NMR phosphoramidase activity in cell lysates. Format: biochemical. The procedure: as §2
as §1, with “The samples were then dissolved in NMR buffer (600 μL, 50 mM EDTA, 20 mM HEPES (pH 7.2), and 1 mM TMP (trimethylphosphate, internal standard)) and the insoluble portion was spun down by centrifugation at 12,500×g for 5 min. A ^31P NMR spectrum was then collected for the supernatant.” left out, “conditions. […]” for “conditions.”

`Nc1ncnc2c1ncn2[C@@H]1O[C@H](COP(N)(=O)O)[C@@H](O)[C@H]1O` [AMP-NH2, Adenosine 5′-monophosphoramidate]: the “Stability at pH 2.0 (no detectable AMP or Pi)” value in series [1] is “at least 12 h”. For the same molecule, the Specific activity at hHINT1 [2] came out at 196 ± 33 nmol nmol^−1 min^−1; on E. coli hinT-DHFR, 753 ± 2 nmol nmol^−1 min^−1; at Human Hint1-DHFR, 388 ± 45 nmol nmol^−1 min^−1; on E. coli hinT, 526 ± 27 nmol nmol^−1 min^−1; at Rabbit HINT1 it was 70.0 ± 1.3 nmol nmol^−1 min^−1. In addition, the Kcat on hHINT1 [3] is 0.2 s⁻¹. The Michaelis constant (Km) at hHINT1 [3] is 0.068 µM. Besides, the “Extent of hydrolysis to AMP” value in series [4] (12 h incubation, 37° C.) is reported as “complete hydrolysis”. Moreover, the “Hydrolysis rate by E. coli cell lysates” value in series [4] (pH 7.0, 37° C., 5 mM, averaged for 15 min and 30 min) is 76.3 (±20.9) nmol mg^−1 min^−1.

By Km is commonly meant the substrate concentration at which the rate is half of its maximum.

These data come from patent US20060014193A1, “Nucleoside phosphoramidates and nucleoside phosphoramidases” (priority 2004, published 2006).
